Measured values from patent US6596696B1, “Malto-oligosaccharide derivatives and uses thereof” (Kikkoman Corporation, priority 1999, dated 2003).

Columns and labels:
[1] = target: T1, α-amylase derived from human salivary gland (HSA) (Homo sapiens, UniProt P0DUB6); test: In vitro amylase activity inhibition test, HSA (blue starch, Neo Amylase Test); assay type: biochemical; conditions: 37° C., 30 minutes, blue starch substrate
T1 construct: purchased International Reagents Corp. Japan Calibzyme AMY
T1 sequence (P0DUB6 16-511): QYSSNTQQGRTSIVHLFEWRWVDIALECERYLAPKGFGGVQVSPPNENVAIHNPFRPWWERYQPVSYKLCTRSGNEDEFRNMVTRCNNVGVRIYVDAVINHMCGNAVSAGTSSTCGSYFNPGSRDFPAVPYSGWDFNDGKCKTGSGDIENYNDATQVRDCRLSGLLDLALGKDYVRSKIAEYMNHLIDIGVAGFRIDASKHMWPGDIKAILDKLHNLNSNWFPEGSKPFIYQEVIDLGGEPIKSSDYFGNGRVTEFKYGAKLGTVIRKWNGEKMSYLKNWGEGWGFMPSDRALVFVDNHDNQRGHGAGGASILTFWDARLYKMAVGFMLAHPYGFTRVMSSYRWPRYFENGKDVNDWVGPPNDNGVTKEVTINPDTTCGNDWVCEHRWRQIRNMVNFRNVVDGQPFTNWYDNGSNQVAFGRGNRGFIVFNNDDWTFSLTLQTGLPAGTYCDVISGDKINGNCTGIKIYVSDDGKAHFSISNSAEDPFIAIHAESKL
Procedure: (§1) (1) Preparation of Human α-amylase Solution
(§2) Commercial HPA and HSA were dissolved in purified water to a concentration of 350 IU/1 to prepare an α-amylase solution. As commercial HPA and HSA, “Calibzyme AMY” (available from International Reagents Corp. Japan) was used. The α-amylase activity was determined according to the calibration curve of a commercial α-amylase determining reagent “Neo Amylase Test ┌FDAIICHI┘” (available from Daiichi Pure Chemicals Co., Ltd., Japan).
(§3) (2) Preparation of Inhibitor Solution
(§4) DOG2Az obtained in Example 1, GDOG2Az obtained in Example 2 and comparative G2Az (6^3-position non-modified maltoligosaccharide derivative disclosed in JP-A-9-278789) represented by the following formula
(§5) (3) were diluted with distilled water so that the final concentration would become 5 to 0.0001 mM. [drawing 4]
(§6) (3) Determination of Human α-amylase Inhibitory Activity (IC50) of Inhibitor Solution
(§7) 3.0 ml of distilled water, 1.0 ml of the inhibitor solution, Neo Amylase Test ┌DAIICHI┘ (produced by Daiichi Pure Chemicals Co., Ltd., Japan) and one tablet of blue starch were added to 100 μl of HPA or HSA solution, and the mixture was stirred by a mixer for about 10 seconds and then heated at 37° C. for 30 minutes. Thereafter, 1.0 ml of 0.5 N sodium hydroxide solution was added and the mixture was further stirred. Then the reaction was stopped, the solution was centrifuged (1,500 G, 5 minutes) and absorbance of the supernatant at 620 nm was measured. In blank, distilled water was used in place of the inhibitor solution. “IC50” indicates the final concentration (mM) of the inhibitor material required for inhibiting the activity of HPA or HSA solution by 50%.

[2] = target: T2, α-amylase derived from human pancreatic juice (HPA) (Homo sapiens, UniProt P04746); test: In vitro amylase activity inhibition test, HPA (blue starch, Neo Amylase Test); assay type: biochemical; conditions: 37° C., 30 minutes, blue starch substrate
T2 construct: purchased International Reagents Corp. Japan Calibzyme AMY
T2 sequence (P04746 16-511): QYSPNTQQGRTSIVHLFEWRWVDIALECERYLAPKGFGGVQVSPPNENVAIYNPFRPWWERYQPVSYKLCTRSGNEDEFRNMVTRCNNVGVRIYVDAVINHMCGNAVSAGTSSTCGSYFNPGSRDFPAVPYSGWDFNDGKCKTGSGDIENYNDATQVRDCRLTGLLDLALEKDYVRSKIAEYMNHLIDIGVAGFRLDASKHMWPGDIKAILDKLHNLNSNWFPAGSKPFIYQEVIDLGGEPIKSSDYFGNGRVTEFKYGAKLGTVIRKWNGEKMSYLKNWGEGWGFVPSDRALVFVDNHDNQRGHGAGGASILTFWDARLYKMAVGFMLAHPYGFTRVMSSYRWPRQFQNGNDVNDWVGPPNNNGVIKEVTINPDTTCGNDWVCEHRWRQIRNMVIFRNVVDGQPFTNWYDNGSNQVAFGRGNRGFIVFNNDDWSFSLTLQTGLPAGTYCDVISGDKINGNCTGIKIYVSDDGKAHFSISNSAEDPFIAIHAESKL
Procedure: as §1, §2, §3, §4, §5, §6, §7

blood glucose level = test: Anti-diabetic action: inhibition of rise of blood glucose level after corn starch intake in mice; assay type: in vivo, mice (Crj:CD-1(ICR)); conditions: for Significant test (t-test): P value, inhibition of rise of blood glucose level; for Blood glucose level before intake: mice fasted 20 hours, 0 min; for Blood glucose level before intake / Blood glucose level 30 minute after intake: n=5, in mg/dL (unit assumed); for Blood glucose level 30 minute after intake: 30 minutes
Procedure: Commercially available healthy mice (Crj:CD-1(ICR) with body weight of 20.5 to 26.0 g, bred by Japan Charles Liver Co., Ltd.), were used for the test.
The mice were divided into three groups (n=5). After left fasting for 20 hours, the mice of the compound-administered groups were forced to take orally DOG2Az, G2Az and corn starch as saccharide which was made into a liquid state with sterilized distilled water.
Blood was collected from the orbital vein of each mouse before and after the intake of the materials (0 and after 30 minutes), and the amount of glucose in blood was measured to determine the inhibitory effect against the rise of blood glucose level, i.e. anti-diabetic action of the compounds, after intake of corn starch. The inhibitory effect against the rise of blood glucose level was judged by t-test. Glucose concentration in blood was measured by a blood glucose level analyzer “ANTSENSE” (mfd. by Bayer Sankyo Ltd.).

Row | SMILES | IC50 [1] | IC50 [2] | melting point | also measured
1 | C[C@H]1O[C@H](O[C@H]2[C@H](O)[C@@H](O)[C@@H](O[C@H]3[C@H](O)[C@@H](O)CNC[C@H]3O)O[C@@H]2CO)[C@H](O)[C@@H](O)[C@@H]1O[C@H]1O[C@H](CO)[C@@H](O)[C@H](O)[C@H]1O [GDOG2Az, (3R, 4R, 5R, 6S)-Hexahydro-3,5,6-trihydroxy-1H-azepine-4-yl O-(α-D-glucopyranosyl)-(1→4)-O-(6-deoxy-α-D-glucopyranosyl)-(1→4)-α-D-glucopyranoside] | 0.028 mM | 0.026 mM |  | 
2 | OCC1OC(OC2C(CO)OC(OC3C(O)CNCC(O)C3O)C(O)C2O)C(O)C(O)C1O (stereo not drawn) [Example G2Az, reference compound] | 0.082 mM | 0.043 mM |  | Significant test (t-test) (blood glucose level; 60 mg/kg oral + corn starch 2,000 mg/kg): P < 1%; Blood glucose level before intake (blood glucose level; group given 60 mg/kg oral + corn starch 2,000 mg/kg): 102 ± 21; Blood glucose level 30 minute after intake (blood glucose level; mice, 60 mg/kg oral + corn starch 2,000 mg/kg): 169 ± 8
3 | C[C@H]1O[C@H](O[C@H]2[C@H](O)[C@@H](O)[C@@H](O[C@H]3[C@H](O)[C@@H](O)CNC[C@H]3O)O[C@@H]2CO)[C@H](O)[C@@H](O)[C@@H]1O (hydrate or solvate) [DOG2Az, (3R, 4R, 5R, 6S)-Hexahydro-3,5,6-trihydroxy-1H-azepine-4-yl O-(6-deoxy-α-D-glucopyranosyl)-(1→4)-α-D-glucopyranoside] |  |  | 132 to 134 °C (dec.) | 
4 | C[C@H]1O[C@H](O[C@H]2[C@H](O)[C@@H](O)[C@@H](O[C@H]3[C@H](O)[C@@H](O)CNC[C@H]3O)O[C@@H]2CO)[C@H](O)[C@@H](O)[C@@H]1O [DOG2Az, (3R, 4R, 5R, 6S)-Hexahydro-3,5,6-trihydroxy-1H-azepine-4-yl O-(6-deoxy-α-D-glucopyranosyl)-(1→4)-α-D-glucopyranoside] | 0.037 mM | 0.024 mM |  | Significant test (t-test) (blood glucose level; 5 mg/kg oral + corn starch 2,000 mg/kg): P < 0.1%; Blood glucose level before intake (blood glucose level; group given 5 mg/kg oral + corn starch 2,000 mg/kg): 101 ± 18; Blood glucose level 30 minute after intake (blood glucose level; mice, 5 mg/kg oral + corn starch 2,000 mg/kg): 136 ± 23; rise of blood glucose level in comparison with the control group (blood glucose level; mice, 5 mg/kg oral + corn starch 2,000 mg/kg, result in words): suppressed significantly
5 | C[C@H]1O[C@H](O[C@H]2[C@H](O)[C@@H](O)[C@@H](O[C@H]3[C@H](O)[C@@H](O)CNC[C@H]3O)O[C@@H]2CO)[C@H](O)[C@@H](O)[C@@H]1O[C@H]1O[C@H](CO)[C@@H](O)[C@H](O)[C@H]1O (hydrate or solvate) [GDOG2Az, (3R, 4R, 5R, 6S)-Hexahydro-3,5,6-trihydroxy-1H-azepine-4-yl O-(α-D-glucopyranosyl)-(1→4)-O-(6-deoxy-α-D-glucopyranosyl)-(1→4)-α-D-glucopyranoside] |  |  | 144 to 146 °C (dec.) | 
